Results taken from PubChem BioAssay (NCI).
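Five compound concentrations were applied to cells in 96-well plates for 48 hours; endpoints were derived by simple linear interpolation of the resulting dose-response curve. At the GI50, growth is halved. The concentration for full growth arrest is given as TGI.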

Assays:
Test in all cases: NCI-60 cell line screen, 48 h
786-0 renal = tested on: 786-0 renal
A498 renal = tested on: A498 renal
A549 NSCLC = tested on: A549 NSCLC
ACHN renal = tested on: ACHN renal
BT-549 breast = tested on: BT-549 breast
CCRF-CEM leukemia = tested on: CCRF-CEM leukemia
COLO 205 colon = tested on: COLO 205 colon
DU-145 prostate = tested on: DU-145 prostate
EKVX NSCLC = tested on: EKVX NSCLC
HCC-2998 colon = tested on: HCC-2998 colon
HCT-116 colon = tested on: HCT-116 colon
HCT-15 colon = tested on: HCT-15 colon
HOP-62 NSCLC = tested on: HOP-62 NSCLC
HOP-92 NSCLC = tested on: HOP-92 NSCLC
HS 578T breast = tested on: HS 578T breast
HT29 colon = tested on: HT29 colon
IGROV1 ovarian = tested on: IGROV1 ovarian
K-562 leukemia = tested on: K-562 leukemia
KM12 colon = tested on: KM12 colon
LOX IMVI melanoma = tested on: LOX IMVI melanoma
M14 melanoma = tested on: M14 melanoma
MALME-3M melanoma = tested on: MALME-3M melanoma
MCF7 breast = tested on: MCF7 breast
MDA-MB-231 breast = tested on: MDA-MB-231 breast
MDA-MB-435 = tested on: MDA-MB-435
MOLT-4 leukemia = tested on: MOLT-4 leukemia
NCI-H226 lung = tested on: NCI-H226 lung
NCI-H23 lung = tested on: NCI-H23 lung
NCI-H460 lung = tested on: NCI-H460 lung
NCI-H522 lung = tested on: NCI-H522 lung
NCI/ADR-RES ovarian = tested on: NCI/ADR-RES ovarian
OVCAR-3 ovarian = tested on: OVCAR-3 ovarian
OVCAR-4 ovarian = tested on: OVCAR-4 ovarian
OVCAR-5 ovarian = tested on: OVCAR-5 ovarian
OVCAR-8 ovarian = tested on: OVCAR-8 ovarian
PC-3 prostate = tested on: PC-3 prostate
RPMI-8226 leukemia = tested on: RPMI-8226 leukemia
RXF 393 renal = tested on: RXF 393 renal
SF-268 CNS = tested on: SF-268 CNS
SF-539 CNS = tested on: SF-539 CNS
SK-MEL-2 melanoma = tested on: SK-MEL-2 melanoma
SK-MEL-28 melanoma = tested on: SK-MEL-28 melanoma
SK-MEL-5 melanoma = tested on: SK-MEL-5 melanoma
SK-OV-3 ovarian = tested on: SK-OV-3 ovarian
SN12C renal = tested on: SN12C renal
SNB-19 CNS = tested on: SNB-19 CNS
SNB-75 CNS = tested on: SNB-75 CNS
SW-620 colon = tested on: SW-620 colon
T-47D breast = tested on: T-47D breast
TK-10 renal = tested on: TK-10 renal
U251 CNS = tested on: U251 CNS
UACC-257 melanoma = tested on: UACC-257 melanoma
UACC-62 melanoma = tested on: UACC-62 melanoma
UO-31 renal = tested on: UO-31 renal

Cc1cc(Cl)nc(N(CCCNc2ccnc3cc(Cl)ccc23)Cc2cccs2)n1
GI50 (786-0 renal): 1490 nM | TGI (786-0 renal): 4350 nM | GI50 (A498 renal): 714 nM | TGI (A498 renal): 6990 nM | GI50 (A549 NSCLC): 2960 nM | TGI (A549 NSCLC): 12500 nM | GI50 (ACHN renal): 2000 nM | TGI (ACHN renal): 11500 nM | GI50 (BT-549 breast): 2520 nM | TGI (BT-549 breast): 9130 nM | GI50 (CCRF-CEM leukemia): 2560 nM | TGI (CCRF-CEM leukemia): > 100000 nM | GI50 (COLO 205 colon): 1390 nM | TGI (COLO 205 colon): 3580 nM | GI50 (DU-145 prostate): 2230 nM | TGI (DU-145 prostate): 14700 nM | GI50 (EKVX NSCLC): 1990 nM | TGI (EKVX NSCLC): 12700 nM | GI50 (HCC-2998 colon): 2090 nM | TGI (HCC-2998 colon): 6120 nM | GI50 (HCT-116 colon): 437 nM | TGI (HCT-116 colon): 2640 nM | GI50 (HCT-15 colon): 1430 nM | TGI (HCT-15 colon): 10100 nM | GI50 (HOP-62 NSCLC): 1830 nM | TGI (HOP-62 NSCLC): 10700 nM | GI50 (HOP-92 NSCLC): 1740 nM | TGI (HOP-92 NSCLC): 7780 nM | GI50 (HS 578T breast): 2210 nM | TGI (HS 578T breast): 12900 nM | GI50 (HT29 colon): 570 nM | TGI (HT29 colon): 4040 nM | GI50 (IGROV1 ovarian): 856 nM | TGI (IGROV1 ovarian): 6200 nM | GI50 (K-562 leukemia): 496 nM | TGI (K-562 leukemia): 8550 nM | GI50 (KM12 colon): 2610 nM | TGI (KM12 colon): 11000 nM | GI50 (LOX IMVI melanoma): 1220 nM | TGI (LOX IMVI melanoma): 2980 nM | GI50 (M14 melanoma): 1230 nM | TGI (M14 melanoma): 2910 nM | GI50 (MALME-3M melanoma): 1640 nM | TGI (MALME-3M melanoma): 3460 nM | GI50 (MCF7 breast): 1740 nM | TGI (MCF7 breast): 6850 nM | GI50 (MDA-MB-231 breast): 1240 nM | TGI (MDA-MB-231 breast): 3400 nM | GI50 (MDA-MB-435): 1940 nM | TGI (MDA-MB-435): 6090 nM | GI50 (MOLT-4 leukemia): 1770 nM | TGI (MOLT-4 leukemia): 11800 nM | GI50 (NCI-H226 lung): 2560 nM | TGI (NCI-H226 lung): 15500 nM | GI50 (NCI-H23 lung): 1280 nM | TGI (NCI-H23 lung): 5800 nM | GI50 (NCI-H460 lung): 1560 nM | TGI (NCI-H460 lung): 11000 nM | GI50 (NCI-H522 lung): 1310 nM | TGI (NCI-H522 lung): 4310 nM | GI50 (NCI/ADR-RES ovarian): 1060 nM | TGI (NCI/ADR-RES ovarian): 6530 nM | GI50 (OVCAR-3 ovarian): 2190 nM | TGI (OVCAR-3 ovarian): 13400 nM | GI50 (OVCAR-4 ovarian): 2810 nM | TGI (OVCAR-4 ovarian): 25600 nM | GI50 (OVCAR-5 ovarian): 1390 nM | TGI (OVCAR-5 ovarian): 13700 nM | GI50 (OVCAR-8 ovarian): 2060 nM | TGI (OVCAR-8 ovarian): 10400 nM | GI50 (PC-3 prostate): 1830 nM | TGI (PC-3 prostate): 13700 nM | GI50 (RPMI-8226 leukemia): 830 nM | TGI (RPMI-8226 leukemia): 3840 nM | GI50 (RXF 393 renal): 1370 nM | TGI (RXF 393 renal): 5220 nM | GI50 (SF-268 CNS): 3360 nM | TGI (SF-268 CNS): 16800 nM | GI50 (SF-539 CNS): 1810 nM | TGI (SF-539 CNS): 5850 nM | GI50 (SK-MEL-2 melanoma): 2290 nM | TGI (SK-MEL-2 melanoma): 6540 nM | GI50 (SK-MEL-28 melanoma): 1790 nM | TGI (SK-MEL-28 melanoma): 5780 nM | GI50 (SK-MEL-5 melanoma): 1420 nM | TGI (SK-MEL-5 melanoma): 2790 nM | GI50 (SK-OV-3 ovarian): 3270 nM | TGI (SK-OV-3 ovarian): 12600 nM | GI50 (SN12C renal): 1400 nM | TGI (SN12C renal): 12500 nM | GI50 (SNB-19 CNS): 2350 nM | TGI (SNB-19 CNS): 13500 nM | GI50 (SNB-75 CNS): 2080 nM | TGI (SNB-75 CNS): 13600 nM | GI50 (SW-620 colon): 1100 nM | TGI (SW-620 colon): 8750 nM | GI50 (T-47D breast): 1820 nM | TGI (T-47D breast): 8020 nM | GI50 (TK-10 renal): 2070 nM | TGI (TK-10 renal): 12100 nM | GI50 (U251 CNS): 2180 nM | TGI (U251 CNS): 10200 nM | GI50 (UACC-257 melanoma): 2190 nM | TGI (UACC-257 melanoma): 5490 nM | GI50 (UACC-62 melanoma): 1700 nM | TGI (UACC-62 melanoma): 4510 nM | GI50 (UO-31 renal): 456 nM | TGI (UO-31 renal): 3710 nM
